# Molecular target: High affinity nerve growth factor receptor (Homo sapiens, UniProt P04629)
# Test: Inhibition of TrkA (unknown origin) using fluorescently labeled peptide substrate after 3 hrs
# Chain of High affinity nerve growth factor receptor (P04629 whole entry): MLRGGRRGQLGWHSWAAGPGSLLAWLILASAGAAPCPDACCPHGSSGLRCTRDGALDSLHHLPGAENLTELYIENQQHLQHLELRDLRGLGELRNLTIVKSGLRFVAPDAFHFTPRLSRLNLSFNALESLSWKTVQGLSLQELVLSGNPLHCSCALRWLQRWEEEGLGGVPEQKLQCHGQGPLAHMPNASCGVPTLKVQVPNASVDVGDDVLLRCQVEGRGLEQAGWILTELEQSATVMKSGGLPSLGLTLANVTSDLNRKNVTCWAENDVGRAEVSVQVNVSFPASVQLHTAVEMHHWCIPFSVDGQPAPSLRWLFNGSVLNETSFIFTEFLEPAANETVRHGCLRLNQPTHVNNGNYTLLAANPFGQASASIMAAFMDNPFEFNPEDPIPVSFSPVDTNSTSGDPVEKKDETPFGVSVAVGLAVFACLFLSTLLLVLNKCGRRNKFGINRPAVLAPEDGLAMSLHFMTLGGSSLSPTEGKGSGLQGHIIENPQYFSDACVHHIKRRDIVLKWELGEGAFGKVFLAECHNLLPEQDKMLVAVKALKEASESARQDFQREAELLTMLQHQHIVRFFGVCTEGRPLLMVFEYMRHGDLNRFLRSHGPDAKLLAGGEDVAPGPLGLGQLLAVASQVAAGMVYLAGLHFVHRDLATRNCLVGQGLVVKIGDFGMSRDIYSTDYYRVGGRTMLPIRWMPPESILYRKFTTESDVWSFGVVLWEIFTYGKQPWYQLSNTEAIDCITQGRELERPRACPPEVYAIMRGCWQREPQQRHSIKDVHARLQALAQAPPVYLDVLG
row,EC50 [nM],Structure (SMILES)
1,1010,CC1(C)CN(c2ccc(OC(F)(F)F)cc2)C(=O)N1Cc1cccc(-c2nccs2)c1
2,11.3,CC(C)N(Cc1c[nH]c2ncccc12)C(=O)Nc1ccc(OC(F)(F)F)cc1
3,6.5,CC(C)N(Cc1c[nH]c2ncccc12)C(=O)Nc1ccc(SC(F)(F)F)cc1
